Laboratory results as given in the NIST ThermoML archive (doi:10.1016/j.tca.2009.10.001).
Numbers after ± are expanded uncertainties.

Experiments:
[1] = Liquid; for viscosity: Capillary tube (Ostwald / Ubbelohde) method; for speed of sound: Linear variable-path acoustic interferometer; for mass density: Pycnometric method
[2] = xn = mol fraction of the nth substance listed; details: 101 kPa, Liquid, x1 = 1; for viscosity: Capillary tube (Ostwald / Ubbelohde) method; for speed of sound: Linear variable-path acoustic interferometer; for mass density: Pycnometric method

SMILES	viscosity ([1]; 298.15 K, 101.33 kPa)	speed of sound ([1]; 298.15 K, 101.33 kPa)	mass density ([1]; 298.15 K, 101.33 kPa)	viscosity ([1]; 303.15 K, 101.33 kPa)	speed of sound ([1]; 303.15 K, 101.33 kPa)	mass density ([1]; 303.15 K, 101.33 kPa)	viscosity ([1]; 308.15 K, 101.33 kPa)	speed of sound ([1]; 308.15 K, 101.33 kPa)	mass density ([1]; 308.15 K, 101.33 kPa)	viscosity ([2]; 298.15 K)	speed of sound ([2]; 298.15 K)	mass density ([2]; 298.15 K)	viscosity ([2]; 303.15 K)	speed of sound ([2]; 303.15 K)	mass density ([2]; 303.15 K)	viscosity ([2]; 308.15 K)	speed of sound ([2]; 308.15 K)	mass density ([2]; 308.15 K)	other results
CC#N [acetonitrile]	0.3696 ± 0.0053 mPa·s	1271.3 ± 1.8 m/s	775.3 ± 0.3 kg/m3	0.3554 ± 0.0052 mPa·s	1251.9 ± 1.8 m/s	769.9 ± 0.3 kg/m3	0.3414 ± 0.0052 mPa·s	1231.7 ± 1.7 m/s	764.7 ± 0.4 kg/m3										
CCCC#N [butanenitrile]	0.5463 ± 0.0061 mPa·s	1271.4 ± 1.8 m/s	784.7 ± 0.3 kg/m3	0.5255 ± 0.006 mPa·s	1252.2 ± 1.8 m/s	780.3 ± 0.4 kg/m3	0.5049 ± 0.0059 mPa·s	1233.9 ± 1.7 m/s	775.9 ± 0.4 kg/m3										
CCC#N [propanenitrile]	0.4107 ± 0.0055 mPa·s	1252.4 ± 1.8 m/s	775.4 ± 0.3 kg/m3	0.3991 ± 0.0054 mPa·s	1232.7 ± 1.7 m/s	769.9 ± 0.3 kg/m3	0.3822 ± 0.0053 mPa·s	1213.7 ± 1.7 m/s	765.2 ± 0.4 kg/m3										
Cc1ccccc1 [toluene]																			viscosity ([1]; 298.15 K, 101 kPa): 0.5635 ± 0.0056 mPa·s; speed of sound ([1]; 298.15 K, 101 kPa): 1299.8 ± 1.5 m/s; mass density ([1]; 298.15 K, 101 kPa): 860.9 ± 0.3 kg/m3; viscosity ([1]; 303.15 K, 101 kPa): 0.5344 ± 0.0055 mPa·s; speed of sound ([1]; 303.15 K, 101 kPa): 1279.5 ± 1.5 m/s; mass density ([1]; 303.15 K, 101 kPa): 856 ± 0.3 kg/m3; viscosity ([1]; 308.15 K, 101 kPa): 0.5091 ± 0.0054 mPa·s; speed of sound ([1]; 308.15 K, 101 kPa): 1260.7 ± 1.5 m/s; mass density ([1]; 308.15 K, 101 kPa): 851.6 ± 0.3 kg/m3
Cc1ccccc1 [toluene] + CC#N										0.5635 ± 0.0056 mPa·s	1299.8 ± 1.5 m/s	860.9 ± 0.3 kg/m3	0.5344 ± 0.0055 mPa·s	1279.5 ± 1.5 m/s	856 ± 0.3 kg/m3	0.5091 ± 0.0054 mPa·s	1260.7 ± 1.5 m/s	851.6 ± 0.3 kg/m3	
Cc1ccccc1 [toluene] + CCC#N										0.5635 ± 0.0056 mPa·s	1299.8 ± 1.5 m/s	860.9 ± 0.3 kg/m3	0.5344 ± 0.0055 mPa·s	1279.5 ± 1.5 m/s	856 ± 0.3 kg/m3	0.5091 ± 0.0054 mPa·s	1260.7 ± 1.5 m/s	851.6 ± 0.3 kg/m3	
Cc1ccccc1 [toluene] + CCCC#N										0.5635 ± 0.0056 mPa·s	1299.8 ± 1.5 m/s	860.9 ± 0.3 kg/m3	0.5344 ± 0.0055 mPa·s	1279.5 ± 1.5 m/s	856 ± 0.3 kg/m3	0.5091 ± 0.0054 mPa·s	1260.7 ± 1.5 m/s	851.6 ± 0.3 kg/m3	
